Laboratory results as given in publication PMC8200971, “Design, Synthesis, Biological Evaluation and Silico Prediction of Novel Sinomenine Derivatives” (Molecules, 2021).

Tests used:
[1] = test system: HepG2 (human hepatocellular carcinoma cell lines); test: MTT assay, growth inhibition; type: cell-based; details: HepG2, 20 μM, 24 h
Method: (§1) The in vitro growth inhibitory activity of the sinomenine derivatives (5a–5k) was evaluated against different three cell lines, MCF-7, Hela, and HepG2, using sinomenine as the reference compound kept under the same conditions in an MTT assay. The inhibition ratios of synthetic compounds were determined at concentrations of 2, 20 and 200 μM.
(§2) The MCF-7 (human breast cancer cell lines), Hela (human cervical cancer cells lines), and HepG2 (human hepatocellular carcinoma cell lines) cells were used to measure the cytotoxicity of the 5a–5k series, which were provided by the Academy of Military Medical Sciences (Beijing, China). The cell lines were maintained on RPMI 1640 nutrient medium supplemented with 10% heat-inactivated fetal bovine serum, 1% L-glutamine, […] and 100 units/mL penicillin. The cells were grown at 37 °C in a humidified atmosphere with 5% CO2 and were subcultured two to three times a week.
(§3) The MTT (3-(4, 5-dimethyl thiazol-2-yl)-2, 5-diphenyl tetrazolium bromide) assay with a slight modification was used to determine the inhibition effects of substrates 5a–5k. MCF-7, Hela and HepG2 were used for testing. Briefly, cells (5.0 × 10^3 cells per well) were seeded in 100 μL of the RPMI-1640 medium in 96-well plates for 24 h, treated with drugs and complete medium in wells up to 200 μL for 24 h. RPMI-1640 samples were employed as negative controls, and cisplatin as a positive control. Four quadruplicates of each concentration for all tested compounds were evaluated in three independent assays. For this, after removing the drug containing media 100 μL, 10 μL of MTT solution was added to wells and incubated for 4 h under similar conditions. After that, the supernatant from each well was removed and the formazan crystals formed by viable cells were dissolved with DMSO (100 μL/well). At the end of incubation, optical densities at 570 nm were measured using a plate reader (BIO-TEK, USA). Cell viability was calculated based on the measured absorbance relative to the absorbance of the cells exposed to the negative control, which represented 100% cell viability.

[2] = test system: Hela (human cervical cancer cells lines); test: MTT assay, growth inhibition; type: cell-based; details: 20 μM, 24 h
Method: as §1, §2, §3

[3] = test system: MCF-7 (human breast cancer cell lines); test: MTT assay, growth inhibition; type: cell-based; details: MCF-7, 20 μM, 24 h
Method: as §1, §2, §3

[4] = test system: Hek293 (human embryonic kidney cell lines); test: CCK8 cytotoxicity assay, normal cells; type: cell-based; details: Homo sapiens, HEK293, 60 h; for inhibition at 2.5 µM / inhibition at 25 µM: read-out: growth inhibition ratio (mean ± SD)
Method: (§4) Cytotoxicity screens were performed to assess the in vitro anticancer activity of the synthesized sinomenine derivatives 6a–6l on the various cancer cell lines MCF-7, Hela, SW480, and A549, as well as on Hek293 as a normal cell line, at doses of 2.5 and 25 μM. The obtained inhibition ratios data were used to construct a heat map (Figure 3, Tables S1 and S2) in order to select compounds that exert cancer cell line-specific cytotoxicity. Then, the IC50 values of the promising compound were determined. Cisplatin was used as a reference standard. The antiproliferative activity was based on the evaluation of the percent viability using the CCK8 assay, which is a rapid and sensitive method for determining the number of viable cells in culture. In the presence of electronic coupling reagents, WST-8 can be reduced by a dehydrogenase in the mitochondria to produce a highly water-soluble orange-yellow formazan product. Its color is proportional to the proliferation of the number of viable cells and is related to cytotoxicity. Using a microplate reader to measure the OD value can indirectly reflect the number of living cells at 450 nm wavelength.
(§5) To understand structure–function relationships, these selected compounds were subjected to subsequent analyses. All six compounds (6a and 6c–6g) were further examined to determine their IC50 concentrations on the previously mentioned cell lines, and their efficacy was compared to the reference drug cisplatin. For this, six compounds and cisplatin were evaluated on Hela, MCF-7, SW480, and A549, and on noncancerous Hek293 cell lines at various concentrations for 60 h. IC50 values were calculated (Table 2).
(§6) The MCF-7 (human breast cancer cell lines), Hela (human cervical cancer cell lines), SW480 (human colon adenocarcinoma cell lines), A549 (human lung adenocarcinoma cell lines) and nontoxic normal cells Hek293 (human embryonic kidney cell lines) cells were used to measure the cytotoxicity of the 6a–6l. They were obtained from the Beijing Normal University (Beijing, China). The test cell lines were cultured in DMEM, IMDM, F12 and DMEM nutrient medium containing 10% heat-inactivated fetal bovine serum, […] and 100 units/mL penicillin in a humified, 5% (v/v) CO2 atmosphere at 37 °C.
(§7) Cell viability was estimated using the CCK8 assay. Tumor cells ([…]) viz. MCF-7, Hela, SW480, A549 and nontoxic normal cells Hek293 were seeded in medium containing Corning® 96-well tissue culture plates at confluences of […], respectively, in Incucyte ZOOM. Fresh medium (100 μL) containing different concentrations of the test sample was added after 12 h of seeding. The microtiter plates were incubated at 37 °C in a humidified incubator with 5% CO2 for 60 h. Triplicates from each concentration were used. Negative control cells were incubated without sample and cisplatin as a positive control. At the end of treatment, the numbers of viable cells were determined by the CCK8 test. In brief, the media was removed from the 96 well plates and replaced with 100 μL of fresh culture medium with 10% CCK8 solution added to each well including the untreated controls. The 96 well plates were then incubated at 37 °C and 5% CO2 for 1–4 h. Then, the absorbance was measured at 450 nm using a BMG LABTECH®-POLAR star Omega microplate reader (Ortenberg, Germany) to determine the number of viable cells, and the percentage of viability was calculated as ((ODt- ODb/ODc- ODb)) × 100%, where ODt is the mean optical density of wells treated with the tested sample, ODc is the mean optical density of wells treated with DMSO and ODb is the mean optical density of PBS wells without cells. The relation between surviving cells and drug concentrations were plotted to get the survival curve of each tumor cell line after treatment with the specified compound. […]

[5] = test system: A549 (human lung adenocarcinoma cell lines); test: CCK8 cytotoxicity assay; type: cell-based; details: Homo sapiens, A549, 60 h; for inhibition at 2.5 µM / inhibition at 25 µM: read-out: growth inhibition ratio (mean ± SD)
Method: as §4, §5, §6, §7

[6] = test system: Hela (human cervical cancer cell lines); test: CCK8 cytotoxicity assay; type: cell-based; details: Homo sapiens, HeLa, 60 h; for inhibition at 2.5 µM / inhibition at 25 µM: read-out: growth inhibition ratio (mean ± SD)
Method: as §4, §5, §6, §7

[7] = test system: MCF-7 (human breast cancer cell lines); test: CCK8 cytotoxicity assay; type: cell-based; details: Homo sapiens, MCF7, 60 h; for inhibition at 2.5 µM / inhibition at 25 µM: read-out: growth inhibition ratio (mean ± SD)
Method: as §4, §5, §6, §7

[8] = test system: SW480 (human colon adenocarcinoma cell lines); test: CCK8 cytotoxicity assay; type: cell-based; details: Homo sapiens, SW480, 60 h; for inhibition at 2.5 µM / inhibition at 25 µM: read-out: growth inhibition ratio (mean ± SD)
Method: as §4, §5, §6, §7

Row | SMILES | inhibition ratio [1] | melting point [°C] | inhibition ratio [2] [%] | inhibition ratio [3] [%] | inhibition at 2.5 µM [4] [%] | inhibition at 25 µM [4] [%] | inhibition at 2.5 µM [5] [%] | inhibition at 25 µM [5] [%] | inhibition at 2.5 µM [6] [%] | inhibition at 25 µM [6] [%] | inhibition at 2.5 µM [7] [%] | inhibition at 25 µM [7] [%] | inhibition at 2.5 µM [8] [%] | inhibition at 25 µM [8] [%] | IC50 ([4]; read-out: IC50 Hek293) [µM] | IC50 ([5]; read-out: IC50 A549) [µM] | IC50 ([6]; read-out: IC50 Hela) [µM] | IC50 ([7]; read-out: IC50 MCF-7) [µM] | IC50 ([8]; read-out: IC50 SW480) [µM]
1 | COC1=C[C@@H]2[C@@H]3Cc4c(CN5CCCCC5)cc(OC)c(OC(=O)Cc5cccc(Cl)c5)c4[C@]2(CCN3C)CC1=O [5g, (4bR,8aS,9S)-3,7-dimethoxy-11-methyl-6-oxo-1-(piperidin-1-ylmethyl)-6,8a,9,10-tetrahydro-5H-9,4b-(epiminoethano)phenanthren-4-yl 2-(3-chlorophenyl)acetate] | more than 53.2% | 164 to 167 |  |  |  |  |  |  |  |  |  |  |  |  |  |  |  |  | 
2 | COC1=C[C@@H]2[C@@H]3Cc4c(CN5CCCCC5)cc(OC)c(OC(=O)Cc5ccc(Cl)cc5Cl)c4[C@]2(CCN3C)CC1=O [5i, (4bR,8aS,9S)-3,7-dimethoxy-11-methyl-6-oxo-1-(piperidin-1-ylmethyl)-6,8a,9,10-tetrahydro-5H-9,4b-(epiminoethano)phenanthren-4-yl 2-(2,4-dichlorophenyl)acetate] | 90.69% | 135 to 137 | 94.43 | 54.13 |  |  |  |  |  |  |  |  |  |  |  |  |  |  | 
3 | COC1=C[C@@H]2[C@@H]3Cc4c(CN5CCCC5)cc(OC)c(OC(=O)Cc5ccccc5)c4[C@]2(CCN3C)CC1=O [6h, (4bR,8aS,9S)-3,7-dimethoxy-11-methyl-6-oxo-1-(pyrrolidin-1-ylmethyl)-6,8a,9,10-tetrahydro-5H-9,4b-(epiminoethano)phenanthren-4-yl 2-phenylacetate] |  | 165 to 168 |  |  | 17.4 ± 1.49 | 46 ± 22.4 | 20.6 ± 0.77 | 52.3 ± 0.76 | 11.2 ± 10 | 21.2 ± 4.4 | 5.79 ± 10 | 0 | 28.2 ± 10.3 | 37.8 ± 9.83 |  |  |  |  | 
4 | COC1=C[C@@H]2[C@@H]3Cc4c(CN5CCCC5)cc(OC)c(OC(=O)Cc5ccccc5OC)c4[C@]2(CCN3C)CC1=O [6k, (4bR,8aS,9S)-3,7-dimethoxy-11-methyl-6-oxo-1-(pyrrolidin-1-ylmethyl)-6,8a,9,10-tetrahydro-5H-9,4b-(epiminoethano)phenanthren-4-yl 2-(2-methoxyphenyl)acetate] |  | 180 to 182 |  |  | 13.9 ± 4.06 | 63.5 ± 10.2 | 16.6 ± 2.3 | 51.9 ± 6.36 | 0 | 44.1 ± 0.92 | 0.75 ± 1.29 | 24.4 ± 11 | 3.72 ± 1.8 | 36.9 ± 0.52 |  |  |  |  | 
5 | COC1=C[C@@H]2[C@@H]3Cc4c(CN5CCCCC5)cc(OC)c(OC(=O)Cc5ccc(Cl)c(Cl)c5)c4[C@]2(CCN3C)CC1=O [5j, (4bR,8aS,9S)-3,7-dimethoxy-11-methyl-6-oxo-1-(piperidin-1-ylmethyl)-6,8a,9,10-tetrahydro-5H-9,4b-(epiminoethano)phenanthren-4-yl 2-(3,4-dichlorophenyl)acetate] | 89.57% | 143 to 146 | 80.22 | 63.35 |  |  |  |  |  |  |  |  |  |  |  |  |  |  | 
6 | COC1=C[C@@H]2[C@@H]3Cc4c(CN5CCCC5)cc(OC)c(OC(=O)Cc5ccccc5Cl)c4[C@]2(CCN3C)CC1=O [6c, (4bR,8aS,9S)-3,7-dimethoxy-11-methyl-6-oxo-1-(pyrrolidin-1-ylmethyl)-6,8a,9,10-tetrahydro-5H-9,4b-(epiminoethano)phenanthren-4-yl 2-(2-chlorophenyl)acetate] |  | 79 to 83 |  |  | 13.8 ± 2.27 | 54.6 ± 2.29 | 16.3 ± 0.63 | 49.4 ± 0.59 | 3.05 ± 3.91 | 53.5 ± 2.45 | 0 | 42 ± 3.02 | 28.3 ± 6.91 | 58.4 ± 7.58 | 6.52 ± 0.19 | 18.7 ± 0.7 | > 25 | > 25 | > 25
